Assay: xn = mol fraction of the nth substance listed
Details: 100 kPa, Liquid; for speed of sound: Frequency=3 MHz, Single path-length method; for mass density: Vibrating tube method

CCCCOCCOCCO [3,6-dioxa-1-decanol] + CCCCCCO
Details	mass density, 293.15 K [kg/m3]	mass density, 298.15 K [kg/m3]	mass density, 303.15 K [kg/m3]	mass density, 308.15 K [kg/m3]	mass density, 313.15 K [kg/m3]	speed of sound, 293.15 K [m/s]	speed of sound, 298.15 K [m/s]	speed of sound, 303.15 K [m/s]	speed of sound, 308.15 K [m/s]	speed of sound, 313.15 K [m/s]
x1 = 0.0612	830.032	826.42	822.781	819.109	815.428	1323.2	1306.7	1289.7	1273.2	1256.6
x1 = 0.1016	836.858	833.209	829.539	825.839	822.126	1325.7	1309	1292.1	1275.4	1259.1
x1 = 0.1593	846.323	842.636	838.928	835.192	831.439	1329.1	1312.2	1295.4	1278.6	1262.3
x1 = 0.2053	853.619	849.892	846.155	842.384	838.617	1331.8	1314.9	1298.2	1281.3	1265
x1 = 0.251	860.647	856.892	853.123	849.323	845.516	1334.4	1317.5	1301	1283.8	1267.6
x1 = 0.3095	869.401	865.605	861.792	857.954	854.105	1337.5	1320.9	1304.2	1287.1	1271.2
x1 = 0.4054	883.079	879.224	875.359	871.465	867.564	1343.2	1326.3	1309.8	1292.4	1276.4
x1 = 0.5021	896.077	892.169	888.244	884.294	880.34	1348.5	1331.7	1314.9	1297.7	1281.6
x1 = 0.6049	909.164	905.192	901.21	897.205	893.199	1354.2	1337.5	1320.8	1303.3	1287.3
x1 = 0.6982	920.378	916.352	912.316	908.259	904.202	1359.8	1342.7	1326.1	1308.4	1292.7
x1 = 0.801	931.924	927.842	923.754	919.65	915.548	1365.5	1348.7	1331.8	1314.2	1298.2
x1 = 0.8313	935.198	931.096	926.99	922.874	918.76	1367.2	1350.3	1333.3	1315.8	1299.6
x1 = 0.9042	942.783	938.65	934.516	930.365	926.213	1372.5	1354.8	1338.3	1320.2	1304.8
x1 = 1	952.288	948.1	943.909	939.704	935.503	1378.2	1361.3	1344.5	1326.4	1307.7

CCCCOCCOCCO [3,6-dioxa-1-decanol] + CCCCCCCCO
Details	mass density, 293.15 K [kg/m3]	mass density, 298.15 K [kg/m3]	mass density, 303.15 K [kg/m3]	mass density, 308.15 K [kg/m3]	mass density, 313.15 K [kg/m3]	speed of sound, 293.15 K [m/s]	speed of sound, 298.15 K [m/s]	speed of sound, 303.15 K [m/s]	speed of sound, 308.15 K [m/s]	speed of sound, 313.15 K [m/s]
x1 = 0.0518	832.225	828.746	825.244	821.725	818.179	1364.4	1347.4	1330.7	1313.9	1297.4
x1 = 0.1019	838.886	835.371	831.834	828.281	824.7	1363.4	1346.4	1329.7	1313	1296.4
x1 = 0.1605	846.645	843.087	839.508	835.909	832.289	1362.8	1345.8	1329.1	1312.5	1296
x1 = 0.1994	851.754	848.167	844.558	840.932	837.284	1362.4	1345.5	1328.8	1312.1	1295.6
x1 = 0.2503	858.438	854.812	851.169	847.507	843.826	1362.1	1345.3	1328.5	1311.9	1295.5
x1 = 0.303	865.322	861.66	857.975	854.271	850.554	1362	1345.2	1328.5	1311.9	1295.4
x1 = 0.4013	878.059	874.317	870.565	866.793	863.012	1362.5	1345.7	1329	1312.4	1296
x1 = 0.4999	890.695	886.882	883.058	879.218	875.365	1363.2	1346.4	1329.7	1313.1	1296.7
x1 = 0.5918	902.338	898.456	894.568	890.661	886.747	1364.5	1347.6	1330.9	1314.3	1297.8
x1 = 0.7043	916.351	912.393	908.423	904.44	900.454	1366.7	1349.8	1333.1	1316.5	1299.9
x1 = 0.8085	929.131	925.094	921.053	916.997	912.939	1369.4	1352.4	1335.7	1319	1302.5
x1 = 0.848	933.965	929.901	925.834	921.75	917.662	1370.8	1353.8	1336.8	1320.1	1303.6
x1 = 0.901	940.359	936.257	932.151	928.029	923.906	1373	1356	1339.2	1322.4	1305.8
x1 = 0.9501	946.262	942.124	937.981	933.818	929.657	1374.3	1357.3	1340.4	1323.7	1307
x1 = 1	952.288	948.1	943.909	939.704	935.503	1378.2	1361.3	1344.5	1326.4	1307.7

CCCCOCCOCCO [3,6-dioxa-1-decanol] + CCCCCCCCCCO
Details	mass density, 293.15 K [kg/m3]	mass density, 298.15 K [kg/m3]	mass density, 303.15 K [kg/m3]	mass density, 308.15 K [kg/m3]	mass density, 313.15 K [kg/m3]	speed of sound, 293.15 K [m/s]	speed of sound, 298.15 K [m/s]	speed of sound, 303.15 K [m/s]	speed of sound, 308.15 K [m/s]	speed of sound, 313.15 K [m/s]
x1 = 0.0523	835.331	831.923	828.507	825.069	821.625	1393.8	1376.5	1359.8	1343.3	1326.4
x1 = 0.102	840.692	837.244	833.786	830.318	826.838	1391.2	1374.1	1357.4	1340.8	1324
x1 = 0.1579	846.823	843.333	839.841	836.332	832.81	1388.7	1371.5	1354.9	1338.3	1321.7
x1 = 0.207	852.21	848.697	845.172	841.631	838.082	1386.6	1369.3	1352.7	1336	1319.7
x1 = 0.2513	857.155	853.609	850.057	846.484	842.906	1385	1367.4	1350.8	1334.1	1318
x1 = 0.3099	863.89	860.297	856.695	853.085	849.466	1382.7	1365.1	1348.6	1331.8	1315.9
x1 = 0.4046	875.017	871.358	867.688	864.011	860.317	1379.6	1362.3	1345.7	1328.8	1312.8
x1 = 0.5087	887.59	883.854	880.111	876.354	872.591	1376.9	1359.7	1343.1	1326	1310.2
x1 = 0.6073	899.873	896.063	892.242	888.409	884.574	1374.5	1358.4	1341.8	1324.7	1308.1
x1 = 0.7051	912.356	908.464	904.568	900.658	896.746	1373.9	1357.8	1341.3	1323.9	1307.1
x1 = 0.7952	924.132	920.17	916.202	912.22	908.239	1373.4	1357.9	1341.4	1323.9	1306.6
x1 = 0.8515	931.68	927.667	923.651	919.614	915.585	1373.4	1358.6	1342.2	1324.6	1306.5
x1 = 0.9006	938.376	934.318	930.252	926.171	922.107	1374.5	1359.6	1343.1	1325.4	1307.4
x1 = 0.9379	943.482	939.393	935.294	931.189	927.082	1374.9	1360.6	1344.1	1326.3	1307.7
x1 = 1	952.288	948.1	943.909	939.704	935.503	1378.2	1361.3	1344.5	1326.4	1307.7

Source: the NIST ThermoML archive (doi:10.1016/j.jct.2018.06.015)
